# Assay results from patent US4454341A, “Naphthyl or tetrahydronaphthyl-substituted naphthoic acid and derivatives” (SRI International, priority 1983, dated 1984).
# Tests used:
# [1] = system: Hamster Tracheal Organ Culture (keratinization); test: Tracheal organ culture assay (reversal of keratinization); assay type: cell-based; settings: 10 days in culture
# Procedure: (§1) The ODC assay measures a compound's ability to prevent the induction of ODC. The tracheal organ culture assay measures a compound's ability to reverse keratinization.
# The tracheal organ culture assay is carried out as follows. Tracheas are taken from hamsters that are in very early stages of vitamin A deficiency and placed in organ culture. At the time of culture, the animals are still gaining weight; the tracheal epithelium is generally low columnar or cuboidal, with only occasional patches of squamous metaplasia. Each trachea is opened from the larynxto the carina along the membranous dorsal wall and cultured in a serum-free medium (CMRL-1066; with crystalline bovine insulin, 0.1 μg/ml; hydrocortisone hemisuccinate, 0.1 μg/ml; glutamine, 2 mM; penicillin, 100 units/ml; and streptomycin, 100 μg/ml, added). Cultures are gassed with 50% oxygen, 45% nitrogen, and 5% CO2. The culture dishes are rocked at 35.5-36.0 degrees to allow the tracheas contact with both gas and medium. All tracheas are grown in medium containing no retinoid for the first 3 days. At the end of 3 days, some tracheas are harvested; almost all of these tracheas have significant squamous metaplasia, and approximately 60% have keratinized lesions. The remaining tracheas are then divided into different groups which are treated with either: (1) retinoid dissolved in dimethylsulfoxide (final concentration of DMSO in culture medium is never greater than 0.1%) or (2) an equivalent amount of DMSO alone. Culture medium is changed three times a week, and all of the remaining tracheas are harvested at the end of 10 days in culture. Tracheas are fixed in 10% buffered formalin and embedded in paraffin. Cross sections of five micrometers are made through the mid-portion, stained with hematoxylin and eosin, and then scored with a microscope for the presence of keratin and keratohyaline granules, both of which are found in approximately 90% of control cultures that received no retinoid for the entire 10 day culture period.
# Ornithine Decarboxylase = test: Ornithine decarboxylase (ODC) assay: inhibition of TPA induction of ODC in mouse skin; assay type: in vivo, mouse (female Charles River CD-1); settings: topical, 1 hour before TPA (17 nmol)
# Procedure: as §1
# The ODC assay is carried out as follows. Female Charles River CD-1 mice from Charles River Breeding Laboratories, Wilmington, Mass., are used (age 7 to 9 weeks). The dorsal hair of the mice is shaved 1 to 2 days before testing, and only mice showing no hair regrowth are used. A single dose of 12-O-tetradecanoylphorbol-13-acetate (TPA) (10.5 μg, 17 nmol) in 0.2 mL of acetone is applied topically to the back of each mouse. The test compound, at one of three dose levels (1.7, 17 and 170 nmol), dissolved in 0.2 mL of acetone is applied 1 hour before the TPA treatment to the test groups; the control group is treated with acetone alone. The mice are killed by cervical dislocations five hours after TPA treatment. Determinations are done in triplicate.
# The epidermis is obtained from the sacrificed animals. To obtain sufficient material, the dorsal skins from 2 to 3 mice in each treatment group are pooled. The depilatory agent Nudit® (Helena Rubinstein, N.Y.) is applied to the shaved area of the skin; after 5 minutes, it is washed off thoroughly with cold tap water. Then the skin is excised and plunged immediately into ice-cold water; it is then placed in a 55° C. water bath for 30 seconds and reimmersed in ice-cold water for at least another 30 seconds. The skin is placed epidermis side up on a cold plate, and the epidermis is scraped off with a razor blade. The pooled epidermal sheets are homogenized (Polytron PT-10 homogenizer) at 0° to 4° C. for 15-20 seconds in 50 mM sodium phosphate and 0.1 mM ethylenediaminetetraacetic acid (EDTA), at a volume of 1 mL/skin.
# The supernatant fraction remaining after centrifugation of the homogenate at 10,000×g for 30 seconds at 0° C. is used for the enzyme assay. Enzyme activity is determined using the microassay for ODC as described by Verma and Boutwell to measure the release of ^14 CO2 from DL-[1-^14 C]-ornithine (58 mCi/mmol) after incubation with the 10,000×g supernatant. The incubations are carried out by decanting, with a Pasteur pipette, 100 μL of the supernatant containing 100 to 120 μg of protein into two or three 15-mL Corex tubes in a shaking water bath at 37° C. The assay mixture in the tubes consists of 50 μL of 100 mM sodium phosphate buffer (pH 7.2), 10 μL of 4 mM pyridoxal phosphate, 40 μL of 25 mM dithiothreitol, and 1 μL of 0.1 M EDTA. The center wells in the tubes are filled with 200 μL of a 2:1 solution (v/v) of ethanolamine:2-methoxyethanol. The reaction is started by adding 50 μL of substrate (0.5 μCi of DL-[1-^14 C]-ornithine in 2 mM cold ornithine) at 1-minute intervals by injection to each of the stoppered tubes. Incubations are routinely carried out at 37° C. for 30 to 60 minutes. The reaction is stopped by addition of 0.5 ml of 2M citric acid, and incubation is continued for an additional hour without heating to ensure complete absorption of ^14 CO2.
# Radioactivity is measured using a toluene-based scintillant (4 g of PPO and 50 mg of POPOP/L of toluene) in a Beckman LS-250 liquid scintillation counter. Enzyme activity is determined in triplicate and expressed as nanomoles of CO2 released in 30 minutes per milligram of protein. Enzyme activity is linear for the protein concentration used. The protein concentrations of the epidermal extracts are determined by the Lowry procedure, using bovine serum albumin as the standard.
# [2] = system: ornithine decarboxylase (ODC); settings: literature, copending application or unpublished data; cited from earlier work
Compound,"Reversal of Keratinization in Hamster Tracheal Organ Culture, Active Cultures (%) ([1]; Conc 10^-9 M)","Reversal of Keratinization in Hamster Tracheal Organ Culture, Active/Total Cultures ([1]; Conc 10^-9 M)","Reversal of Keratinization in Hamster Tracheal Organ Culture, Active Cultures (%) ([1]; Conc 10^-10 M)","Reversal of Keratinization in Hamster Tracheal Organ Culture, Active/Total Cultures ([1]; Conc 10^-10 M)","Reversal of Keratinization in Hamster Tracheal Organ Culture, Active Cultures (%) ([1]; Conc 10^-11 M)","Reversal of Keratinization in Hamster Tracheal Organ Culture, Active/Total Cultures ([1]; Conc 10^-11 M)","Inhibition of Induction of Ornithine Decarboxylase by 12-O-Tetradecanoylphorbol-13-acetate in Mouse Skin, % Inhibition of Control (Ornithine Decarboxylase; Dose 1.7 nmol) [%]","Inhibition of Induction of Ornithine Decarboxylase by 12-O-Tetradecanoylphorbol-13-acetate in Mouse Skin, % Inhibition of Control (Ornithine Decarboxylase; Dose 17 nmol)",activity in the ODC assay (in words) [2],"Reversal of Keratinization in Hamster Tracheal Organ Culture, Active Cultures (%) ([1]; Conc 10^-8 M)","Reversal of Keratinization in Hamster Tracheal Organ Culture, Active/Total Cultures ([1]; Conc 10^-8 M)"
"CC1(C)CCC(C)(C)c2cc(-c3ccc4cc(C(=O)O)ccc4c3)ccc21 [6-(1,2,3,4-Tetrahydro-1,1,4,4-tetramethyl-6-naphthyl)-2-naphthoic acid]",100,7/7,100,7/7,71,5/7,56,80%,–,–,–
"CC1=C(C=Cc2ccc3cc(C(=O)O)ccc3c2)C(C)(C)CCC1 [6-[2-(2,6,6-trimethyl-1-cyclohexen-1-yl)ethenyl]-2-naphthoic acid]",–,–,–,–,–,–,–,–,exhibited activity in the ODC assay,–,–
"CCOC(=O)c1ccc(/C=C(\C)c2ccc3c(c2)C(C)(C)CCC3(C)C)cc1 [Ethyl 4-[(E)-2-(1,2,3,4-tetrahydro-1,1,4,4-tetramethyl-6-naphthyl)-1-propen-1-yl]benzoate]",–,–,–,–,–,–,86,86%,exhibits activity in the ODC assay,–,–
"CCOC(=O)c1ccc2cc(-c3ccc4c(c3)C(C)(C)CCC4(C)C)ccc2c1 [Ethyl 6-(1,2,3,4-tetrahydro-1,1,4,4-tetramethyl-6-naphthyl)-2-naphthoate]",–,–,–,–,–,–,50,75%,–,–,–
CC1=C(/C=C/C(C)=C/C=C/C(C)=C/C(=O)O)C(C)(C)CCC1 [Retinoic Acid],88,419/474,52,134/256,–,–,–,87-91%,–,100,236/236
